The results in this text go back to paper doi:10.64898/2025.12.08.692997v2 (biorxiv, 2025).

Structures can show the parent of a compound that is named as a salt. Where two headings read alike, the source gives them in different places.

Experiment [1] concerns the target T1, human EphB2-His ectodomain - human EphrinB2-Fc ectodomain (EphB2-EphrinB2 tetramer) (Homo sapiens, UniProt P29323+P52799). The experiment is described as follows: biochemical. The conditions noted are these: Octet IC50 data EB2-EphB2 (Absolute). (BLI is a label-free optical method that tracks binding on a fibre tip over time.)
Experiment [2] deals with T1, human EphB2-His ectodomain - human EphrinB2-Fc ectodomain (EphB2-EphrinB2 tetramer). The experiment is described as follows: biochemical. As to conditions: Octet IC50 data EB2-EphB2 (Relative).
Experiment [3] has the same target. The experiment can be described thus: biochemical.
Experiment [4] has the same target. The experiment can be described thus: biochemical. The source holds these as a separate data set.
The target is the same in experiment [5]. The experiment can be described thus: biochemical. This is another data set of the same source.
Experiment [6] shares this target. The experiment can be described thus: biochemical. As to conditions: EphrinB2-EphB2 IC50 (Relative, µM).
Experiment [7] has the same target. The experiment can be described thus: biochemical. As to conditions: EphrinB2-EphB2 IC50 (Absolute, µM).
The target of experiment [8] is rat EphB1-Fc ectodomain - mouse EphrinB2-His ectodomain (EphB1-EphrinB2) (Rattus norvegicus; Mus musculus, UniProt P09759+P52800). The experiment can be described thus: biochemical.
The target of experiment [9] is T1, human EphB2-His ectodomain - human EphrinB2-Fc ectodomain (EphB2-EphrinB2 tetramer). The experiment can be described thus: biochemical. This is another data set of the same source.
Experiment [10] has the same target. The experiment is described as follows: biochemical. The source holds these as a separate data set.
For experiment [11] the target is unchanged. The experiment can be described thus: biochemical. This is another data set of the same source.
Experiment [12] shares this target. The experiment is described as follows: biochemical. This is another data set of the same source.
Experiment [13] shares this target. The experiment is described as follows: biochemical. This is another data set of the same source.
For experiment [14] the target is unchanged. The experiment can be described thus: biochemical. This is another data set of the same source.
The target of experiment [15] is EphrinB2 of mouse pancreatic stellate cells stimulated with mouse EphB2-Fc-His (Mus musculus, UniProt P52800+P54763). The experiment is described as follows: % pEphrinB2 by IP and immunoblot. Type of experiment: cell-based. In general terms: In western blotting, separated proteins are transferred to a membrane and probed.
Experiment [16] addresses T1, human EphB2-His ectodomain - human EphrinB2-Fc ectodomain (EphB2-EphrinB2 tetramer). The experiment can be described thus: biochemical. The source holds these as a separate data set.
Experiment [17] has the same target. The experiment is described as follows: biochemical. This is another data set of the same source.

T1 sequence (P52799 28-229): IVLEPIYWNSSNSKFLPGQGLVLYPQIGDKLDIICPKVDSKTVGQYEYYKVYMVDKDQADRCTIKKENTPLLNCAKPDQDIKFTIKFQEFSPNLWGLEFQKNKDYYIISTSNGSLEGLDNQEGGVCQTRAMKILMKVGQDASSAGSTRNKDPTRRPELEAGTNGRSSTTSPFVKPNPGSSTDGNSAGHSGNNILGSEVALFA
T1 sequence (P29323 19-543): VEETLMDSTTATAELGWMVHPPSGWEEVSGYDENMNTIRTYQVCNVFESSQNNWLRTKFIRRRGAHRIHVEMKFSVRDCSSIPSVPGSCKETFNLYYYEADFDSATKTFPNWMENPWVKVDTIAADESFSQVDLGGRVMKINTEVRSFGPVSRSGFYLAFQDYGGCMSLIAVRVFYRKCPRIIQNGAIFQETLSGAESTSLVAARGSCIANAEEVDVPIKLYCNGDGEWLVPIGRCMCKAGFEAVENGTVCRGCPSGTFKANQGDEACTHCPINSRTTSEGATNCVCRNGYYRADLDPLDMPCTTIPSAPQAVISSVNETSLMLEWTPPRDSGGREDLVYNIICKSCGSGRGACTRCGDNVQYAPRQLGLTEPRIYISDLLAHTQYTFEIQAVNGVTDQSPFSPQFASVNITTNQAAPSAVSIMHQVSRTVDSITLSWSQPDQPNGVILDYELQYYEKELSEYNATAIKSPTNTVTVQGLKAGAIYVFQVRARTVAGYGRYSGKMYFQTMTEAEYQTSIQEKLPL
Chain of rat EphB1-Fc ectodomain - mouse EphrinB2-His ectodomain (EphB1-EphrinB2) (P52800 29-232): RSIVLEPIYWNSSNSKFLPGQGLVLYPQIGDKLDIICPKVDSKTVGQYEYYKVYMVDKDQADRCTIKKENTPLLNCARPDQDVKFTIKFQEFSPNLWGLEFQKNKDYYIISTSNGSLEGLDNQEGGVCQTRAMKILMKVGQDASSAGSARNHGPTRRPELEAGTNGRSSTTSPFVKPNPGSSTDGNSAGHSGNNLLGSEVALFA
Chain of rat EphB1-Fc ectodomain - mouse EphrinB2-His ectodomain (EphB1-EphrinB2) (P09759 18-538): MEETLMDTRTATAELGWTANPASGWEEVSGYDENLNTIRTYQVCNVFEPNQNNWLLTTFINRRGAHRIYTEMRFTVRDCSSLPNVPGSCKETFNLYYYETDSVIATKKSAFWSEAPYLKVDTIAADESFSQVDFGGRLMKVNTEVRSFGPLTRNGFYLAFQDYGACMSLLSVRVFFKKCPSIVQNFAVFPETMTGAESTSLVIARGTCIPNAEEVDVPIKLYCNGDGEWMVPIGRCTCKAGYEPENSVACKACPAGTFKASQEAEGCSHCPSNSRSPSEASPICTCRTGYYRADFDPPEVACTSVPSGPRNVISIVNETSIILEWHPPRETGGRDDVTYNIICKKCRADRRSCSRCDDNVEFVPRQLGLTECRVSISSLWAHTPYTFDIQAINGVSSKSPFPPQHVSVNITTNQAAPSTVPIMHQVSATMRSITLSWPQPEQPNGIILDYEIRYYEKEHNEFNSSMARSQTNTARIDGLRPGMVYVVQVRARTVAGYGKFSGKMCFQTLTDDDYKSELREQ
Chain of EphrinB2 of mouse pancreatic stellate cells stimulated with mouse EphB2-Fc-His (P52800 29-336): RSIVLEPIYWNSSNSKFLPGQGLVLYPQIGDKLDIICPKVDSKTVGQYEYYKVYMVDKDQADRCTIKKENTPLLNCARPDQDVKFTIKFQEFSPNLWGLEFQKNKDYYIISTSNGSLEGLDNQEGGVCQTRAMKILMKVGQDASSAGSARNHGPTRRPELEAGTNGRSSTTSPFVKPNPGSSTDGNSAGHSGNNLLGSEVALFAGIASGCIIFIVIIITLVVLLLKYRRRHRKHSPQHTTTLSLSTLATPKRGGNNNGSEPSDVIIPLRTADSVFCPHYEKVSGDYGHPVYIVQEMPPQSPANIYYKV
Chain of EphrinB2 of mouse pancreatic stellate cells stimulated with mouse EphB2-Fc-His (P54763 19-540): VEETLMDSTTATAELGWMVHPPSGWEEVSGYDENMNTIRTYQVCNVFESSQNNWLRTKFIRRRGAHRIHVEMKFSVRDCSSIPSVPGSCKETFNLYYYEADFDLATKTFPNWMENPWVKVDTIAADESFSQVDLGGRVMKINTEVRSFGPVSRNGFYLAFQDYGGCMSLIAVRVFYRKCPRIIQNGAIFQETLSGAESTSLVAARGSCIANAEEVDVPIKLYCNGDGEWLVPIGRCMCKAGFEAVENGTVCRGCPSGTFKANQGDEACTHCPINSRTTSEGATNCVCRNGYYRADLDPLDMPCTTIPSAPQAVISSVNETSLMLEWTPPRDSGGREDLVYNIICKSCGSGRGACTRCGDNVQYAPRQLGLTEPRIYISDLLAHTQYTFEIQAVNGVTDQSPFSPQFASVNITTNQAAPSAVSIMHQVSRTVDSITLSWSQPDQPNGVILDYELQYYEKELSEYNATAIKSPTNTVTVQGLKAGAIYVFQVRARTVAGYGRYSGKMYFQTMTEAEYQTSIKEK

By IC50 is commonly meant the point on the concentration scale where inhibition reaches its midpoint. `Clc1cc2c(c3ncccc13)OCN(C1CCCC1)C2` [1c, 6-chloro-3-cyclopentyl-3,4-dihydro-2H-[1,3]oxazino[5,6-h]quinoline]: the IC50 is 850 nM in experiment [1] and 760 nM in [2].
As to `CN(C)CCC(c1ccc(Cl)cc1)c1ccccn1` (centres unmarked) [compound 6, Chloropheniramine maleate], the IC50 in experiment [3] is above 100000 nM.
Turning to `O=C(O)[C@@H](S)[C@@H](S)C(=O)O` [compound 8, Succimer], the concentration for half-maximal inhibition (IC50) in experiment [4] and in [5] was around 50000 nM each time.
`CCN(CC)CC(=O)Nc1c(C)cccc1C` [compound 4, Lidocaine hydrochloride monohydrate] yielded a half-maximal inhibitory concentration (IC50) in [3] above 100000 nM.
For `Clc1cc2c(c3ncccc13)OCN(C1CCCC1)C2` [1b, 6-chloro-3-cyclopentyl-3,4-dihydro-2H-[1,3]oxazino[5,6-h]quinoline], the IC50 amounted to 1380 nM in [1] and 1200 nM in experiment [2].
As for `O=S1(=O)CCN(Cc2ccc(O)c3ncccc23)CC1` [QTM . 2 HCl, 4-((8-hydroxyquinolin-1-ium-5-yl)methyl)thiomorpholin-4-ium 1,1-dioxide chloride], the values for the half-maximal inhibitory concentration (IC50) in [6], in experiment [7] and in experiment [8] were 0.81 µM, above 1.6 µM and above 100000 nM, respectively.
As for `O=C(O)CN(CCOCCOCCN(CC(=O)O)CC(=O)O)CC(=O)O` [compound 2, EGTA sodium salt], the IC50 in experiment [9] and in experiment [10] was above 3200 nM throughout.
In turn, `CNC[C@H](O)c1cccc(O)c1` [compound 5, Phenylephrine hydrochloride] returned an IC50 in experiment [3] above 100000 nM.
Turning to `O=C(Oc1cccc2cccnc12)c1ccc(F)cc1` [compound 2, 8-quinolinyl 4-fluorobenzoate], the 50% inhibitory concentration (IC50) in [11] was above 100000 nM; in [12], 100000 nM.
Regarding `Oc1ccc(CN2CCOCC2)c2cccnc12` [A19, 5-(morpholinomethyl)quinolin-8-ol], the half-inhibitory concentration (IC50) is above 1.6 µM in experiment [6], above 1.6 µM in [7] and above 100000 nM in [8].
Consider `Clc1cc2c(c3ncccc13)OCN(Cc1cccnc1)C2` [compound 2, 6-chloro-3-(pyridin-3-ylmethyl)-3,4-dihydro-2H-[1,3]oxazino[5,6-h]quinoline], for which the IC50 in experiment [1] turned out to be 850 nM; in experiment [2] it was 740 nM.
Regarding `N[C@@H](Cc1ccc(O)cc1)C(=O)O` [compound 10, L-Tyrosine], the 50% inhibitory concentration (IC50) in experiment [3] is above 100000 nM.
`Cc1ccnc(NC(c2cccc([N+](=O)[O-])c2)c2ccc3cccnc3c2O)c1` (centres unmarked) [SW039339] displayed an IC50 in experiment [13] above 3200 nM.
With `COCCN(CCCCc1ccc2c(n1)NCCC2)CC[C@H](Nc1ncnc2ccccc12)C(=O)O` [compound 9, Bexotegrast], the IC50 in experiment [14] is above 100000 nM.
Turning to `Clc1cc2c(c3ncccc13)OCN(CCc1ccccc1)C2` [compound 11, 6-chloro-3-phenethyl-3,4-dihydro-2H-[1,3]oxazino[5,6-h]quinoline], the IC50 in experiment [1] worked out at 1150 nM; in [2] it was 1070 nM.
`CC(=O)Nc1ccc(O)cc1` [compound 2, Acetaminophen] displayed an IC50 in [3] above 100000 nM.
On to `CCCCN1COc2c(cc(Cl)c3cccnc23)C1` [compound 8, 3-butyl-6-chloro-3,4-dihydro-2H-[1,3]oxazino[5,6-h]quinoline], for which the IC50 in experiment [1] is 1150 nM; in [2] it was 1050 nM.
`CC(c1ccccc1)N1COc2c(cc(Cl)c3cccnc23)C1` (centres unmarked) [compound 10, 6-chloro-3-(1-phenylethyl)-3,4-dihydro-2H-[1,3]oxazino[5,6-h]quinoline]: the figures for the half-inhibitory concentration (IC50) in experiment [1] and in experiment [2] were 890 nM and 740 nM, respectively.
`O=C(O)CN(CCN(CC(=O)O)CC(=O)O)CC(=O)O` [EDTA] came in with an IC50 in experiment [15] of 1100 nM. That is a single-digit micromolar value.
Compound `CC(=O)Oc1ccccc1C(=O)O` [compound 1, Aspirin] displayed an IC50 in experiment [3] above 100000 nM.
As to `Clc1cc2c(c3ncccc13)OCN(CC1CCCO1)C2` (centres unmarked) [4a, 6-chloro-3-((tetrahydrofuran-2-yl)methyl)-3,4-dihydro-2H-[1,3]oxazino[5,6-h]quinoline], the 50% inhibitory concentration (IC50) in [1] was 810 nM; in [2] it was 720 nM.
For the compound `Cc1ncc(CO)c(CO)c1O` [compound 8, Pyridoxine hydrochloride], the IC50 in experiment [3] was above 100000 nM.
With `O=C(Oc1c(Cl)cc(Cl)c2cccnc12)N1CCOCC1` [compound 14, 5,7-dichloro-8-quinolinyl 4-morpholinecarboxylate], in experiment [16], the IC50 is above 100000 nM.
Consider `CC(C)(C)N1COc2c(cc(Cl)c3cccnc23)C1` [compound 3, 3-(tert-butyl)-6-chloro-3,4-dihydro-2H-[1,3]oxazino[5,6-h]quinoline], for which the IC50 turned out to be 1950 nM in [1] and 1780 nM in experiment [2].
As to `O=C(Oc1c(Br)cc(Cl)c2cccnc12)N1CCOCC1` [compound 15, 7-bromo-5-chloro-8-quinolinyl 4-morpholinecarboxylate], the IC50 in experiment [16] was above 100000 nM.
Still for that read-out and setting: to `CN(C(=O)Oc1c(Cl)cc(Cl)c2cccnc12)c1ccccc1` [compound 3, 5,7-dichloro-8-quinolinyl methyl(phenyl)carbamate] belongs above 100000 nM; to `Cc1ccc(N(C)C(=O)Oc2c(Br)cc(Br)c3ccc(C)nc23)cc1` [compound 13, 5,7-dibromo-2-methylquinolin-8-yl methyl(4-methylphenyl)carbamate], above 100000 nM.
As for `O=C(O)c1ccc(-n2nc(-c3ccccc3O)nc2-c2ccccc2O)cc1` [compound 3, Deferasirox], the IC50 in [14] was above 100000 nM.
For the compound `CCc1ccc(CCOc2ccc(CC3SC(=O)NC3=O)cc2)nc1` (centres unmarked) [compound 7, Pioglitazone hydrochloride], in experiment [3], the IC50 is above 100000 nM.
Same read-out and setting: as for `O=C(O)Cc1ccccc1Nc1c(Cl)cccc1Cl` [compound 9, Diclofenac sodium salt], the figure is above 100000 nM; as for `CC(C)Cc1ccc(C(C)C(=O)O)cc1` (centres unmarked) [compound 3, Ibuprofen], above 100000 nM.
Consider `CC1(C)CC(N2COc3c(cc(Cl)c4cccnc34)C2)CC(C)(C)N1` [compound 5, 6-chloro-3-(2,2,6,6-tetramethylpiperidin-4-yl)-3,4-dihydro-2H-[1,3]oxazino[5,6-h]quinoline], for which the IC50 in [1] stood at 1740 nM; in experiment [2], 1150 nM.
Compound `Nc1nc2ncc(CNc3ccc(C(=O)N[C@@H](CCC(=O)O)C(=O)O)cc3)nc2c(=O)[nH]1` [compound 12, Folic acid] had an IC50 in experiment [3] above 100000 nM.
Take `Oc1ccc(Cl)c2cccnc12` [compound 3, Cloxiquine]: the IC50 is around 3200 nM in experiment [17] and above 3200 nM in experiment [10].
For `Clc1cc2c(c3ncccc13)OCN(CCC1=CCCCC1)C2` [compound 12, 6-chloro-3-(2-(cyclohex-1-en-1-yl)ethyl)-3,4-dihydro-2H-[1,3]oxazino[5,6-h]quinoline], the IC50 came out at 660 nM in experiment [1] and 590 nM in experiment [2].
